Patent publication US11332476B2, “Fms-like tyrosine kinase inhibitors” (3SM BIOTRON INC., priority 2018, dated 2022)

Biological target: T1, FLT3 (Homo sapiens, UniProt P36888)
T1 sequence (P36888 27-993): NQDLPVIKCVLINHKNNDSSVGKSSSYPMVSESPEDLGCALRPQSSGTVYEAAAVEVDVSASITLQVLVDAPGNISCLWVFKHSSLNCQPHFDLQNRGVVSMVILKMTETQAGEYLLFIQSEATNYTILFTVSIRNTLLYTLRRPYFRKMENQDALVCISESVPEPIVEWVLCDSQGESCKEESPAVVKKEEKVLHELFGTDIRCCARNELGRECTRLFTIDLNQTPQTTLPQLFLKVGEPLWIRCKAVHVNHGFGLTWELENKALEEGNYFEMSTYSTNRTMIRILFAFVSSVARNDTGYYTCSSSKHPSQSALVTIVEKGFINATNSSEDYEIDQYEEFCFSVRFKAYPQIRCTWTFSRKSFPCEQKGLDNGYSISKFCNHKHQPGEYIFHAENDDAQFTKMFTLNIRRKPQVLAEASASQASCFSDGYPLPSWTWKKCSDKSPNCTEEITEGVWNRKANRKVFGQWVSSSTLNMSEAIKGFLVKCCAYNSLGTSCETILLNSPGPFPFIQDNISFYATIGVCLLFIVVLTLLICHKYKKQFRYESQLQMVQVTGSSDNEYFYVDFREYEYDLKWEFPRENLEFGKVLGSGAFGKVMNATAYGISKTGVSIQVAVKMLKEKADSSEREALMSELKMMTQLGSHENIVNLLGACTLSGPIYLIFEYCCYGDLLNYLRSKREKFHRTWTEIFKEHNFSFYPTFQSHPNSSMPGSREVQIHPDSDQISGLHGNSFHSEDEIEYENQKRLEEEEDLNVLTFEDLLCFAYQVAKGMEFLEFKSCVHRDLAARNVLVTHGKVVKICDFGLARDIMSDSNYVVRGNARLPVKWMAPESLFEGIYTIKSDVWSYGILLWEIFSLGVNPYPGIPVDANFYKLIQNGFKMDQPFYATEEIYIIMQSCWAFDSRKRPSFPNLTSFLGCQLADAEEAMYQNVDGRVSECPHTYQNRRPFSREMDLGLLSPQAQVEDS
Test: Inhibition of FLT3, 33P-ATP kinase assay with filter-binding detection
Type: biochemical
Conditions: 33P-ATP 10 uM, 2 hours at room temperature, filter-binding method
Procedure: Prepare indicated substrate in freshly prepared Base Reaction Buffer (20 mM Hepes (pH 7.5), 10 mM MgCl2, 1 mM EGTA, 0.02% Brij35, 0.02 mg/ml BSA, 0.1 mM Na3VO4, 2 mM DTT, 1% DMSO). Deliver any required cofactors to the substrate solution above. Deliver indicated kinase into the substrate solution and gently mix. The testing compounds in DMSO was added into the kinase reaction mixture by Acoustic technology (Echo550; nanoliter range) and incubated for 20 minutes at room temperature. Deliver 33P-ATP (specific activity […]) into the reaction mixture to initiate the reaction. Incubate kinase reaction for 2 hours at room temperature. Reactions are spotted onto P81 ion exchange paper. Detect kinase activity by filter-binding method.
Inhibition of FLT3 with 4-Quinolone Derivatives

Compound | IC50 [nM]
COc1ccc2sc3c(NCCCNCCO)nc4ccccc4c3c(=O)c2c1 [compound 7712, 6-(3-(2-hydroxyethylamino)propylamino)-10-methoxy-12H-thiochromeno[2,3-c]quinolin-12-one] | 501 to 1000
COc1cccc2c(=O)c3c(sc12)c(NCCN)nc1ccccc13 [compound 7244, 6-(2-aminoethylamino)-8-methoxy-12H-thiochromeno[2,3-c]quinolin-12-one] | < 51
Nc1nc2ccccc2c2c(=O)c3cc(F)ccc3sc12 [compound 7705, 6-amino-10-fluoro-12H-thiochromeno[2,3-c]quinolin-12-one] | > 1000
O=c1c2cc(F)ccc2sc2c(OCCO)nc3ccccc3c12 [compound 7728, 10-fluoro-6-(2-hydroxyethoxy)-12H-thiochromeno[2,3-c]quinolin-12-one] | > 1000
NCCCNc1nc2ccccc2c2c(=O)c3cccc(F)c3sc12 [compound 7211, 6-(3-aminopropylamino)-8-fluoro-12H-thiochromeno[2,3-c]quinolin-12-one] | < 51
NCCCNc1nc2ccc(F)cc2c2c(=O)c3cc(F)ccc3sc12 [compound 7402, 6-(3-aminopropylamino)-2,10-difluoro-12H-thiochromeno[2,3-c]quinolin-12-one] | > 1000
CNCCCNc1nc2ccccc2c2c(=O)c3cc(F)ccc3sc12 [compound 7731, 10-fluoro-6-(3-(methylamino)propylamino)-12H-thiochromeno[2,3-c]quinolin-12-one] | 201 to 500
O=c1c2cc(F)ccc2sc2c(NCCCNCCO)nc3ccc(Cl)cc3c12 [compound 7406, 2-chloro-10-fluoro-6-(3-(2-hydroxyethylamino)propylamino)-12H-thiochromeno[2,3-c]quinolin-12-one] | > 1000
CCNc1nc2ccccc2c2c(=O)c3cc(C)ccc3sc12 [compound 7232, 6-(ethylamino)-10-methyl-12H-thiochromeno[2,3-c]quinolin-12-one] | > 1000
COc1cccc2c(=O)c3c(sc12)c(N1CCNCC1)nc1ccccc13 [compound 7247, 8-methoxy-6-(piperazin-1-yl)-12H-thiochromeno[2,3-c]quinolin-12-one] | 51 to 200
CNCCNc1nc2ccccc2c2c(=O)c3cc(F)ccc3sc12 [compound 7752, 10-fluoro-6-(2-(methylamino)ethylamino)-12H-thiochromeno[2,3-c]quinolin-12-one] | < 51

Other lines, results leading:

IC50 [nM] | Compound
501 to 1000 | NCCCNc1nc2ccccc2c2c(=O)c3cc(Cl)ccc3sc12 [compound 7704, 6-(3-aminopropylamino)-10-chloro-12H-thiochromeno[2,3-c]quinolin-12-one]
> 1000 | O=c1c2cc(F)ccc2sc2c(Nc3ccccn3)nc3ccccc3c12 [compound 7760, 10-fluoro-6-(pyridin-2-ylamino)-12H-thiochromeno[2,3-c]quinolin-12-one]
< 51 | NCCCNc1nc2ccccc2c2c(=O)c3cccc(Cl)c3sc12 [compound 7715, 6-(3-aminopropylamino)-8-chloro-12H-thiochromeno[2,3-c]quinolin-12-one]
< 51 | NCCNc1nc2ccccc2c2c(=O)c3cccc(F)c3sc12 [compound 7240, 6-(2-aminoethylamino)-8-fluoro-12H-thiochromeno[2,3-c]quinolin-12-one]
< 51 | Cc1ccc2sc3c(NCCN)nc4ccccc4c3c(=O)c2c1 [compound 7231, 6-(2-aminoethylamino)-10-methyl-12H-thiochromeno[2,3-c]quinolin-12-one]
